US12460243B2, “Mass spectrometry determination of the sensitivity or resistance of bacteria to an antibiotic” (priority 2019, dated 2025)
Bridge positions count the residues as written; N and C are the ends. Square brackets hold non-standard residues; d marks the D form. Peptide text beside a SMILES is read from it. * marks the point of attachment. Heptanoyl(6-Me) = CC(C)CCCCC(=O)*; Dab = NCC[C@H](N)C(=O)O

System: Klebsiella pneumoniae
Experiment: microdilution in broth (reference method)
Assay type: cell-based
Protocol: So as to be able to evaluate the efficacy of the method according to the invention, the different strains were analyzed beforehand by microdilution in broth in order to determine their status (sensitive or resistant). This method is regarded as the reference method by the CLSI and EUCAST.

Compound: CC(C)CCCCC(=O)N[C@@H](CCN)C(=O)N[C@H](C(=O)N[C@@H](CCN)C(=O)N[C@H]1CCNC(=O)[C@H]([C@@H](C)O)NC(=O)[C@H](CCN)NC(=O)[C@H](CCN)NC(=O)[C@H](CC(C)C)NC(=O)[C@@H](CC(C)C)NC(=O)[C@H](CCN)NC1=O)[C@@H](C)O [colistin] ({Heptanoyl(6-Me)}-[Dab]T[Dab][Dab][Dab][dL]L[Dab][Dab]T; lactam 4-C)
- Statuts par microdilution (strain KP_R9 (chromosomal)): Résistante
- Statuts par microdilution (strain KP_S10): Sensible
- Statuts par microdilution (strain KP_S15): Sensible
- Statuts par microdilution (strain KR_R16 (chromosomal)): Résistante
